We go through eleven compounds from PubChem BioAssay AID2197 (Vanderbilt High Throughput Screening Facility, 2009).

The structures appear in SMILES notation. Calls of active or inactive are those of the source. No rule for the calls is given here.

For the first assay, the target named is Metabotropic glutamate receptor 4 (Homo sapiens) (UniProt Q14833). Nature of the assay: PubChem AID 2197. The settings on record: CHO hmGluR4/Gqi5 calcium mobilization, PAM potency. For orientation: A change in cytosolic calcium serves as a functional read-out for many receptors and channels.
Sequence of Metabotropic glutamate receptor 4 (Homo sapiens) (Q14833 whole entry, looked up): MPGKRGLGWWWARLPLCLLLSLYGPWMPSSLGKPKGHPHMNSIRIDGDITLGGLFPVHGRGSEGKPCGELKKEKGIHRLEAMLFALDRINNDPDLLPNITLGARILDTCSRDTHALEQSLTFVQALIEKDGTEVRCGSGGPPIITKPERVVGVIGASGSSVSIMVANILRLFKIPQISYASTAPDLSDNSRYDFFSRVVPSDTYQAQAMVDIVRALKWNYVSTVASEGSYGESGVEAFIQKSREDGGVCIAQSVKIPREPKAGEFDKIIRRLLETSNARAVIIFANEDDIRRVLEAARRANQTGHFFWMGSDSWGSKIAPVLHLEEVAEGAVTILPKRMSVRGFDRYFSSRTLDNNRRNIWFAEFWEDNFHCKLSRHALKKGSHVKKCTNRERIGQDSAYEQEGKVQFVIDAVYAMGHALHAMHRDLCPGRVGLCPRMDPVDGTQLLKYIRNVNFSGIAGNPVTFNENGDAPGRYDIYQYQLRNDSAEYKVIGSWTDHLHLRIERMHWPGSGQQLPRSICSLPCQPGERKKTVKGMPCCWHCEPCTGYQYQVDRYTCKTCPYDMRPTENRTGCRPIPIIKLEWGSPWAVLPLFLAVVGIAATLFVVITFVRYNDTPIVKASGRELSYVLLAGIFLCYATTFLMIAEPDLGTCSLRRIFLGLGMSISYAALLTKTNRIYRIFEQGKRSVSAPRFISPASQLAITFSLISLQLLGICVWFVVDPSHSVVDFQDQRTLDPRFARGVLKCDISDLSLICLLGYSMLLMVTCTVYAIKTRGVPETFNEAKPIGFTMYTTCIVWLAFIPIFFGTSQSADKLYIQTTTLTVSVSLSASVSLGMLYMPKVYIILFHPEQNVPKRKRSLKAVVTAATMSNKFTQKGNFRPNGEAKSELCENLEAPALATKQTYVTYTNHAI
As to `COc1cc(NC(=O)c2ccccn2)ccc1F`, the EC50 – broadly, the midpoint of the concentration-response curve – was 776 nM.

For the compound `O=C(Nc1ccc(Cl)c(Cl)c1)c1ccncn1`, the concentration giving a half-maximal response (EC50) is 2840 nM.

As for `O=C(Nc1ccc(Cl)c(C(F)(F)F)c1)c1ccccn1`, the EC50 is 2050 nM.

For `O=C(Nc1ccc(Cl)c(Cl)c1)c1ccccn1`, the half-maximal effective concentration (EC50) was 1370 nM.

As for `COc1cc(NC(=O)c2ccccn2)ccc1C`, the EC50 is 562 nM.

Consider `O=C(Nc1ccc(F)c(C(F)(F)F)c1)c1ccccn1`, for which the EC50 was 1530 nM.

Regarding `COc1ccc(NC(=O)c2ccccn2)cc1Cl`, the EC50 was 1050 nM.

On to `O=C(Nc1cccc(Cl)c1)c1ccccn1`, for which the EC50 is 1090 nM.

Staying with this assay, now noted: CHO hmGluR4/Gqi5 calcium mobilization, PAM potency; at 30.1 µM (top of the series).
In the case of `O=C(Nc1cccc(C(F)(F)F)n1)c1ccccn1`, the “% glutamate max response” value was “inactive”.

Consider `COc1cc(NC(=O)c2ccccn2)ncn1`, for which the “% glutamate max response” value is “inactive”.

Regarding `O=C(Nc1ccc(N2CCCS2(=O)=O)cc1)c1ccccn1`, the “% glutamate max response” value was “inactive”.
